Data on one molecule can be found in patent US20260159486A1, “BENZO[H]QUINAZOLINE-4-AMINE DERIVATIVES FOR THE TREATMENT OF CANCER” (Redona Therapeutics, Inc., priority 2021, published 2026).

The assay has as its system MDA-MB-231 cells. Nature of the assay: MDA-MB-231 proliferation assay. Type of assay: cell-based. The settings on record: Homo sapiens, MDA-MB-231, 72 h, YO-PRO-1 Iodide readout. In short, it runs like this: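 Cells seeded at 750 per well, treated next day for 72 h at 37 °C with 0.5% final DMSO. Cell number read by YO-PRO-1 fluorescence after lysis, normalized to DMSO (100%) and time-zero cells (0%). GI50 from 4-parameter logistic fit, maximum constrained to 100%.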

For orientation: GI50 means the concentration at which growth is held to half of that of the control. In the case of `COCCN(C)c1c(O[C@H]2CC[C@H](N)CC2)ccc2c1CC(C)(C)c1c(N)ncnc1-2` [Example 13, 8-(trans-4-aminocyclohexoxy)-N7-(2-methoxyethyl)-N7,5,5-trimethyl-6H-benzo[h]quinazoline-4,7-diamine], the GI50 was 0.1 to 2 µM.
